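Each compound was tested at five concentrations against cells in 96-well plates for 48 hours. Here, GI50 denotes the concentration required for 50% inhibition of growth. TGI: concentration producing complete growth inhibition.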
Key:
Experiment in all cases: NCI anticancer screen, dose series, 48 h
HCT-15 colon = system: HCT-15 colon
HOP-62 NSCLC = system: HOP-62 NSCLC
HOP-92 NSCLC = system: HOP-92 NSCLC
K-562 leukemia = system: K-562 leukemia
LOX IMVI melanoma = system: LOX IMVI melanoma
MDA-MB-231 breast = system: MDA-MB-231 breast
OVCAR-4 ovarian = system: OVCAR-4 ovarian
SN12C renal = system: SN12C renal
U251 CNS = system: U251 CNS
SK-MEL-5 melanoma = system: SK-MEL-5 melanoma

| SMILES | GI50 (HCT-15 colon) [µM] | TGI (HCT-15 colon) [µM] | GI50 (HOP-62 NSCLC) [µM] | TGI (HOP-62 NSCLC) [µM] | GI50 (HOP-92 NSCLC) [µM] | TGI (HOP-92 NSCLC) [µM] | GI50 (K-562 leukemia) [µM] | TGI (K-562 leukemia) [µM] | GI50 (LOX IMVI melanoma) [µM] | TGI (LOX IMVI melanoma) [µM] | GI50 (MDA-MB-231 breast) [µM] | TGI (MDA-MB-231 breast) [µM] | GI50 (OVCAR-4 ovarian) [µM] | TGI (OVCAR-4 ovarian) [µM] | GI50 (SN12C renal) [µM] | TGI (SN12C renal) [µM] | GI50 (U251 CNS) [µM] | TGI (U251 CNS) [µM] | GI50 (SK-MEL-5 melanoma) [µM] | TGI (SK-MEL-5 melanoma) [µM] |
| --- | --- | --- | --- | --- | --- | --- | --- | --- | --- | --- | --- | --- | --- | --- | --- | --- | --- | --- | --- | --- |
| CC/C(=C(/c1ccc(Cl)cc1)c1ccc(OCCCN(C)C)cc1)c1ccc(OC)cc1 | 1.44 | 5.08 | 7.76 | 15.7 | 0.829 | 1.97 | 1.06 | 2.57 | 0.868 | 1.64 | 1.3 | 3.29 | 5.25 | 11.5 | 5.05 | 11.8 | 1.66 | 5.4 | – | – |
| O=C(O)c1cccc(F)c1C(=O)c1ccc2ccccc2c1 | – | > 100 | – | > 100 | – | > 100 | – | > 100 | – | > 100 | – | > 100 | – | > 100 | – | > 100 | – | > 100 | – | – |
| OC(c1cc2c(Cl)cc(Cl)cc2c2cc(C(F)(F)F)ccc12)C1CCCCN1 (configuration not stated) | – | – | 1.72 | 3.47 | 1.12 | 2.57 | – | – | – | – | 1.48 | 3.24 | 2.11 | 4.08 | 1.8 | 3.38 | – | – | 1.73 | 3.12 |
| CC(=O)NC1C(OCc2ccccc2)OC(COC(=O)CCCCCCCCCCNC(=O)CCNc2ccc([N+](=O)[O-])c3[nH]c4ccc(O)cc4c(=O)c23)C(O)C1OC(C)C(=O)N[C@H](C(=O)N[C@H](CCC(=O)O)C(N)=O)C(C)C (some centres not stated) | – | > 100 | – | > 100 | – | 88.4 | – | > 100 | – | 89.2 | – | – | – | > 100 | – | > 100 | – | > 100 | – | > 100 |
| COc1cc(/C=C/C(=O)c2ccc(SC)cc2)cc(OC)c1OC | 3.6 | 14.4 | 14.7 | 29.5 | 32.9 | > 100 | 3.2 | 16.4 | – | – | 4.46 | 17.2 | – | – | 3.17 | 8.98 | 3.27 | 12 | 12 | 24.5 |
| CCn1cc(C(=O)O)c(=O)c2cc(F)c(N3CCNCC3)nc21 | – | > 100 | – | > 100 | – | > 100 | – | > 100 | – | > 100 | – | – | – | > 100 | – | > 100 | – | > 100 | – | > 100 |
| COc1ccc(/C=C2\CCC(CN(C)C)C2=O)cc1 (configuration not stated) | – | 6.49 | – | 33.6 | – | 28.2 | – | 7.25 | – | 3.63 | – | – | – | 16.1 | – | 32.8 | – | 32.7 | – | 16.3 |
| COc1ccc2c(C(=O)NCCCCCC(=O)O)cc3cc4c(cc3c2c1)OCO4 | > 100 | > 100 | > 100 | > 100 | > 100 | > 100 | > 100 | > 100 | > 100 | > 100 | 99.5 | > 100 | – | – | > 100 | > 100 | > 100 | > 100 | > 100 | > 100 |
| OC1OC2COC(c3ccccc3)OC2C(O)C1O (configuration not stated) | – | > 100 | – | > 100 | – | > 100 | – | > 100 | – | > 100 | – | – | – | > 100 | – | > 100 | – | > 100 | – | > 100 |
| c1ccc(Oc2cnc3ccccc3n2)cc1 | > 100 | > 100 | > 100 | > 100 | – | – | > 100 | > 100 | > 100 | > 100 | > 100 | > 100 | > 100 | > 100 | > 100 | > 100 | > 100 | > 100 | 46.3 | > 100 |
| CC(NC(=O)C1(N)CCCC1)C(=O)O (configuration not stated) | – | > 100 | – | > 100 | – | – | – | > 100 | – | > 100 | – | > 100 | – | > 100 | – | > 100 | – | > 100 | – | > 100 |
| Nc1c(-c2ccc(-c3c(N)[n+]([O-])c4ccccc4[n+]3[O-])cc2)[n+]([O-])c2ccccc2[n+]1[O-] | – | 15.4 | – | 32.3 | – | > 100 | – | > 100 | – | 25.6 | – | – | – | 35.9 | – | 34.4 | – | 39.6 | – | 23.6 |
| CC(=O)O[C@H]1CC[C@@]2(C)[C@@H](CC[C@@H]3[C@@H]2CC(=O)[C@@]2(C)[C@H]3C[C@@H]3CC(C)=CC(=O)[C@@H]32)C1 | – | > 100 | – | > 100 | – | – | – | > 100 | – | > 100 | – | > 100 | – | > 100 | – | > 100 | – | > 100 | – | > 100 |
| COc1ccc2c(c1)[n+](=O)c(C(=O)C/C(=N\NC(=O)C[N+](C)(C)C)C(=O)Nc1cc(Cl)ccc1Cl)c(C)n2O | – | > 100 | – | > 100 | – | > 100 | – | > 100 | – | > 100 | – | – | – | > 100 | – | > 100 | – | > 100 | – | > 100 |
| Cc1cc(=O)[nH]c2c1C(=O)C(=O)C=C2 | 60.5 | > 100 | 17.6 | 35.7 | 77.9 | > 100 | 34.3 | > 100 | – | – | 21.2 | 45.2 | 25.6 | 63.4 | 16.8 | 32.7 | 23.8 | 63.5 | 16.7 | 36.9 |
| CCCCCCCCCCCCCCCc1nc(SCC(=O)O)n[nH]1 | – | > 100 | – | > 100 | – | 65 | – | > 100 | – | > 100 | – | – | – | > 100 | – | > 100 | – | 81.2 | – | > 100 |
| O=c1cc(/C=C/c2ccccc2)c2ccc(O/C(=C\c3ccccc3)c3nc4ccccc4c(=O)o3)cc2o1 | – | > 100 | – | 84.7 | – | 86.1 | – | > 100 | – | > 100 | – | – | – | > 100 | – | > 100 | – | > 100 | – | 41 |
| O=C1OC(=O)C2C1C1(c3ccccc3)OC2(c2ccccc2)c2c(Br)c(Br)c(Br)c(Br)c21 (configuration not stated) | – | > 100 | – | > 100 | – | > 100 | – | > 100 | – | > 100 | – | – | – | > 100 | – | > 100 | – | > 100 | – | > 100 |
| CC1(C)OC(=O)C(c2ccsc2)C(=O)O1 | – | > 100 | – | > 100 | – | > 100 | – | > 100 | – | > 100 | – | – | – | > 100 | – | > 100 | – | > 100 | – | > 100 |
